Legend:
HCT-116 = assay: Compound is evaluated for an in vitro cytotoxicity assay against HCT116 tumor cell lines; type: functional, cell-based; conditions: Homo sapiens
[1] = target: Tubulin alpha chain (Sus scrofa) (UniProt P02550); assay: Compound is evaluated for tubulin polymerization (ratio of compound relative to paclitaxel (EC0.01).
Sequence of Tubulin alpha chain (Sus scrofa) (P02550 whole entry, looked up): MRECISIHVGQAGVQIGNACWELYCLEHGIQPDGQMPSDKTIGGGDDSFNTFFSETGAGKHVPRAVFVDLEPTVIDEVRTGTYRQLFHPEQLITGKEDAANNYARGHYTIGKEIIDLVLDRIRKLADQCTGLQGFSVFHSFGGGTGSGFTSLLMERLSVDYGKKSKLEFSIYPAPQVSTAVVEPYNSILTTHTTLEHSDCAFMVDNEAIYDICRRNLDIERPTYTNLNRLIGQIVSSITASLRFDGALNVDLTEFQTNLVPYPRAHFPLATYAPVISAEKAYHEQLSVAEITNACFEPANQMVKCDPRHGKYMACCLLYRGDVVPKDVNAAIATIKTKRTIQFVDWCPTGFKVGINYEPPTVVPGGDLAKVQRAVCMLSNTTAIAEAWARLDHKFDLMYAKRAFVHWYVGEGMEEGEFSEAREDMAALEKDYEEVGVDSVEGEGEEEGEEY

Structure (SMILES) | Ratio [1] | IC50 (HCT-116)
CC(=O)O[C@H]1C(=O)[C@@]2(C)[C@H]([C@H](OC(=O)c3ccccc3)[C@]3(O)C[C@H](OC(=O)[C@H](O)[C@@H](NC(=O)c4ccccc4)c4ccccc4)C(C)=C1C3(C)C)[C@]1(OC(=O)N3CC3)CO[C@@H]1C[C@@H]2O |  | 15.6 nM
CC(=O)O[C@H]1C(=O)[C@]2(C)[C@@H](O)CC3OC[C@@]3(OC(=O)C3CC3)[C@H]2[C@H](OC(=O)c2ccccc2)[C@]2(O)C[C@H](OC(=O)[C@H](O)[C@@H](NC(=O)c3ccccc3)c3ccccc3)C(C)=C1C2(C)C (stereo not given in full) |  | 1 nM
CC(=O)O[C@H]1C(=O)[C@]2(C)[C@@H](O)CC3OC[C@@]3(OC(C)=O)[C@H]2[C@H](OC(=O)c2ccccc2)[C@]2(O)C[C@H](OC(=O)[C@H](O)[C@@H](NC(=O)OC(C)(C)C)c3ccccc3)C(C)=C1C2(C)C (stereo not given in full) | 0.55 | 0.55 nM
CC(=O)O[C@H]1C(=O)[C@]2(C)[C@@H](O)CC3OC[C@@]3(OC(=O)N3CC3)[C@H]2[C@H](OC(=O)c2ccccc2)[C@]2(O)C[C@H](OC(=O)[C@H](O)[C@@H](NC(=O)OC(C)(C)C)c3ccco3)C(C)=C1C2(C)C (stereo not given in full) | 0.8 | 2 nM

Further lines, with some results ahead:

Ratio [1] | Structure (SMILES) | IC50 (HCT-116)
0.85 | CC(=O)O[C@H]1C(=O)[C@]2(C)[C@@H](O)CC3OC[C@@]3(OC(C)=O)[C@H]2[C@H](OC(=O)c2ccccc2)[C@]2(O)C[C@H](OC(=O)[C@H](O)[C@@H](NC(=O)c3ccccc3)c3ccoc3)C(C)=C1C2(C)C (stereo not given in full) | 0.74 nM
0.7 | CC(=O)O[C@H]1C(=O)[C@]2(C)[C@@H](O)CC3OC[C@@]3(OC(=O)N3CC3)[C@H]2[C@H](OC(=O)c2ccccc2)[C@]2(O)C[C@H](OC(=O)[C@H](O)[C@@H](NC(=O)c3ccccc3)c3ccco3)C(C)=C1C2(C)C (stereo not given in full) | 6.9 nM
